# What was measured:
# barnyardgrass [1] = assay: Test C preemergence; format: in vivo, Echinochloa crusgalli; settings: 0 to 100 scale (0 no effect, 100 complete control); for Barnyardgrass plant response rating: preemergence
# Procedure, shortened: (§1)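 Seeds in loam–sand blend received preemergence directed soil spray of test chemicals in non-phytotoxic solvent with surfactant; postemergence treatment was applied at one- to two-leaf stage (2–10 cm). After 10 days in greenhouse, injury rated visually versus untreated controls, 0 (no effect) to 100 (complete control).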
# blackgrass [2] = assay: Test C preemergence; format: in vivo, Alopecurus myosuroides; settings: 0 to 100 scale (0 no effect, 100 complete control); for Blackgrass plant response rating: preemergence
# Procedure, shortened: as §1
# corn [3] = assay: Test C preemergence; format: in vivo, Zea mays; settings: 0 to 100 scale (0 no effect, 100 complete control); for Corn plant response rating: preemergence
# Procedure, shortened: as §1
# green foxtail [4] = assay: Test C preemergence; format: in vivo, Setaria viridis; settings: 0 to 100 scale (0 no effect, 100 complete control); for Foxtail, Green plant response rating: preemergence
# Procedure, shortened: as §1
# kochia [5] = assay: Test C preemergence; format: in vivo, Bassia scoparia; settings: 0 to 100 scale (0 no effect, 100 complete control); for Kochia plant response rating: preemergence
# Procedure, shortened: as §1
# oat, wild [6] = assay: Test C preemergence; format: in vivo, Avena fatua; settings: 0 to 100 scale (0 no effect, 100 complete control); for Oat, Wild plant response rating: preemergence
# Procedure, shortened: as §1
# pigweed, palmer [7] = assay: Test C preemergence; format: in vivo, Amaranthus palmeri; settings: 0 to 100 scale (0 no effect, 100 complete control); for Pigweed, Palmer plant response rating: preemergence
# Procedure, shortened: as §1
# ragweed [8] = assay: Test C preemergence; format: in vivo, Ambrosia artemisiifolia; settings: 0 to 100 scale (0 no effect, 100 complete control); for Ragweed plant response rating: preemergence
# Procedure, shortened: as §1
# ryegrass, Italian [9] = assay: Test C preemergence; format: in vivo, Lolium multiflorum; settings: 0 to 100 scale (0 no effect, 100 complete control); for Ryegrass, Italian plant response rating: preemergence
# Procedure, shortened: as §1
# soybean [10] = assay: Test C preemergence; format: in vivo, Glycine max; settings: 0 to 100 scale (0 no effect, 100 complete control); for Soybean plant response rating: preemergence
# Procedure, shortened: as §1
# wheat [11] = assay: Test C preemergence; format: in vivo, Triticum aestivum; settings: 0 to 100 scale (0 no effect, 100 complete control); for Wheat plant response rating: preemergence
# Procedure, shortened: as §1
# barnyardgrass [12] = assay: Test C postemergence; format: in vivo, Echinochloa crusgalli; settings: 10 days
# Procedure, shortened: as §1
# blackgrass [13] = assay: Test C postemergence; format: in vivo, Alopecurus myosuroides; settings: 10 days
# Procedure, shortened: as §1
# corn [14] = assay: Test C postemergence; format: in vivo, Zea mays; settings: 10 days
# Procedure, shortened: as §1
# green foxtail [15] = assay: Test C postemergence; format: in vivo, Setaria viridis; settings: 10 days
# Procedure, shortened: as §1
# kochia [16] = assay: Test C postemergence; format: in vivo, Bassia scoparia; settings: 10 days
# Procedure, shortened: as §1
# oat, wild [17] = assay: Test C postemergence; format: in vivo, Avena fatua; settings: 10 days
# Procedure, shortened: as §1
# pigweed, palmer [18] = assay: Test C postemergence; format: in vivo, Amaranthus palmeri; settings: 10 days
# Procedure, shortened: as §1
# ragweed [19] = assay: Test C postemergence; format: in vivo, Ambrosia artemisiifolia; settings: 10 days
# Procedure, shortened: as §1
# ryegrass, Italian [20] = assay: Test C postemergence; format: in vivo, Lolium multiflorum; settings: 10 days
# Procedure, shortened: as §1
# soybean [21] = assay: Test C postemergence; format: in vivo, Glycine max; settings: 10 days
# Procedure, shortened: as §1
# wheat [22] = assay: Test C postemergence; format: in vivo, Triticum aestivum; settings: 10 days
# Procedure, shortened: as §1
# galium = assay: Test C postemergence; format: in vivo, Galium aparine; settings: 10 days
# Procedure, shortened: as §1
# horseweed = assay: Test C postemergence; format: in vivo, Erigeron canadensis; settings: 10 days
# Procedure, shortened: as §1
# barnyardgrass [23] = assay: Test D flooded paddy test; format: in vivo, Echinochloa crus-galli; settings: 250 g ai/ha, applied to paddy water, visual rating after 13 to 14 days, scale 0 to 100 (0 no effect, 100 complete control)
# Procedure, shortened: (§2)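 Visual ratings from 0, meaning no effect, to 100, meaning complete control, were assigned against untreated controls 13 to 14 days after compounds were added to the floodwater of pots kept 3 cm deep, with plants at the 2-leaf stage.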
# ducksalad = assay: Test D flooded paddy test; format: in vivo, Heteranthera limosa; settings: 250 g ai/ha, applied to paddy water, visual rating after 13 to 14 days, scale 0 to 100 (0 no effect, 100 complete control)
# Procedure, shortened: as §2
# rice = assay: Test D flooded paddy test; format: in vivo, Oryza sativa; settings: 250 g ai/ha, applied to paddy water, visual rating after 13 to 14 days, scale 0 to 100 (0 no effect, 100 complete control)
# Procedure, shortened: as §2
# sedge, umbrella = assay: Test D flooded paddy test; format: in vivo, Cyperus difformis; settings: 250 g ai/ha, applied to paddy water, visual rating after 13 to 14 days, scale 0 to 100 (0 no effect, 100 complete control)
# Procedure, shortened: as §2
# [24] = Preemergence, 500 g ai/ha, visual rating after 10 days
# [25] = 125 g ai/ha, postemergence, 0 to 100 scale, 0 no effect, 100 complete control
# [26] = Postemergence, 500 g ai/ha, visual 0 to 100 scale (0 no effect, 100 complete control)
# [27] = 500 g ai/ha, postemergence, 0 to 100 scale (0 no effect, 100 complete control)
# [28] = Postemergence, 125 g ai/ha, 0 to 100 scale (0 no effect, 100 complete control)
structure (smiles),measurement,setting,value
COc1c(C)cc(-n2cnc(C(C)C)n2)cc1C(=O)N1C[C@H](C)Oc2c(Cl)cccc21 [Compound 260],"Plant response rating, Barnyardgrass",barnyardgrass [1]; [24],90
same,Barnyardgrass plant response rating,"barnyardgrass [1]; Test C, 125 g ai/ha",70
same,"Plant response rating, Blackgrass",blackgrass [2]; [24],80
same,Blackgrass plant response rating,"blackgrass [2]; Test C, 125 g ai/ha",60
same,"Plant response rating, Corn",corn [3]; [24],10
same,Corn plant response rating,"corn [3]; Test C, 125 g ai/ha",0
same,"Plant response rating, Foxtail, Green",green foxtail [4]; [24],100
same,"Foxtail, Green plant response rating","green foxtail [4]; Test C, 125 g ai/ha",100
same,"Plant response rating, Kochia",kochia [5]; [24],80
same,Kochia plant response rating,"kochia [5]; Test C, 125 g ai/ha",60
same,"Plant response rating, Oat, Wild","oat, wild [6]; [24]",90
same,"Oat, Wild plant response rating","oat, wild [6]; Test C, 125 g ai/ha",30
same,"Plant response rating, Pigweed, Palmer","pigweed, palmer [7]; [24]",100
same,"Pigweed, Palmer plant response rating","pigweed, palmer [7]; Test C, 125 g ai/ha",40
same,"Plant response rating, Ragweed",ragweed [8]; [24],40
same,Ragweed plant response rating,"ragweed [8]; Test C, 125 g ai/ha",0
same,"Plant response rating, Ryegrass, Italian","ryegrass, Italian [9]; [24]",90
same,"Ryegrass, Italian plant response rating","ryegrass, Italian [9]; Test C, 125 g ai/ha",80
same,"Plant response rating, Soybean",soybean [10]; [24],40
same,Soybean plant response rating,"soybean [10]; Test C, 125 g ai/ha",10
same,"Plant response rating, Wheat",wheat [11]; [24],20
same,Wheat plant response rating,"wheat [11]; Test C, 125 g ai/ha",20
same,"Plant response rating, Barnyardgrass",barnyardgrass [12]; [25],10
same,"Plant response rating, Barnyardgrass",barnyardgrass [12]; [26],50
same,"Plant response rating, Blackgrass",blackgrass [13]; [25],20
same,"Plant response rating, Blackgrass",blackgrass [13]; [26],30
same,"Plant response rating, Corn",corn [14]; [25],10
same,"Plant response rating, Corn",corn [14]; [26],60
same,"Plant response rating, Foxtail, Green",green foxtail [15]; [25],10
same,"Plant response rating, Foxtail, Green",green foxtail [15]; [26],60
same,"Plant response rating, Kochia",kochia [16]; [25],60
same,"Plant response rating, Kochia",kochia [16]; [26],90
same,"Plant response rating, Oat, Wild","oat, wild [17]; [25]",30
same,"Plant response rating, Oat, Wild","oat, wild [17]; [26]",50
same,"Plant response rating, Pigweed, Palmer","pigweed, palmer [18]; [25]",10
same,"Plant response rating, Pigweed, Palmer","pigweed, palmer [18]; [26]",50
same,"Plant response rating, Ragweed",ragweed [19]; [25],0
same,"Plant response rating, Ragweed",ragweed [19]; [26],0
same,"Plant response rating, Ryegrass, Italian","ryegrass, Italian [20]; [25]",60
same,"Plant response rating, Ryegrass, Italian","ryegrass, Italian [20]; [26]",60
same,"Plant response rating, Soybean",soybean [21]; [25],100
same,"Plant response rating, Soybean",soybean [21]; [26],100
same,"Plant response rating, Wheat",wheat [22]; [25],20
same,"Plant response rating, Wheat",wheat [22]; [26],20
same,"Plant response rating, Galium",galium; [25],90
same,"Plant response rating, Galium",galium; [26],100
same,"Plant response rating, Horseweed",horseweed; [25],0
same,"Plant response rating, Horseweed",horseweed; [26],10
same,"Plant response rating, Barnyardgrass (Flood)",barnyardgrass [23],0
same,"Plant response rating, Ducksalad (Flood)",ducksalad,0
same,"Plant response rating, Rice (Flood)",rice,0
same,"Plant response rating, Sedge, Umbrella (Flood)","sedge, umbrella",0
CC(C)Oc1ncn(-c2cccc(C(=O)N3C[C@H](C)Oc4c(Cl)cccc43)c2)n1 [Compound 312],Barnyardgrass plant response rating,barnyardgrass [1]; 500 g ai/ha,40
same,Barnyardgrass plant response rating,"barnyardgrass [1]; Test C, 125 g ai/ha",0
same,Blackgrass plant response rating,blackgrass [2]; 500 g ai/ha,80
same,Blackgrass plant response rating,"blackgrass [2]; Test C, 125 g ai/ha",50
same,Corn plant response rating,corn [3]; 500 g ai/ha,10
same,Corn plant response rating,"corn [3]; Test C, 125 g ai/ha",0
same,"Foxtail, Green plant response rating",green foxtail [4]; 500 g ai/ha,90
same,"Foxtail, Green plant response rating","green foxtail [4]; Test C, 125 g ai/ha",80
same,Kochia plant response rating,kochia [5]; 500 g ai/ha,20
same,Kochia plant response rating,"kochia [5]; Test C, 125 g ai/ha",0
same,"Oat, Wild plant response rating","oat, wild [6]; 500 g ai/ha",70
same,"Oat, Wild plant response rating","oat, wild [6]; Test C, 125 g ai/ha",0
same,"Pigweed, Palmer plant response rating","pigweed, palmer [7]; 500 g ai/ha",70
same,"Pigweed, Palmer plant response rating","pigweed, palmer [7]; Test C, 125 g ai/ha",20
same,Ragweed plant response rating,ragweed [8]; 500 g ai/ha,0
same,Ragweed plant response rating,"ragweed [8]; Test C, 125 g ai/ha",0
same,"Ryegrass, Italian plant response rating","ryegrass, Italian [9]; 500 g ai/ha",80
same,"Ryegrass, Italian plant response rating","ryegrass, Italian [9]; Test C, 125 g ai/ha",70
same,Soybean plant response rating,soybean [10]; 500 g ai/ha,10
same,Soybean plant response rating,"soybean [10]; Test C, 125 g ai/ha",0
same,Wheat plant response rating,wheat [11]; 500 g ai/ha,10
same,Wheat plant response rating,"wheat [11]; Test C, 125 g ai/ha",0
same,"Plant response rating, Barnyardgrass",barnyardgrass [12]; [27],10
same,"Plant response rating, Barnyardgrass",barnyardgrass [12]; [28],10
same,"Plant response rating, Blackgrass",blackgrass [13]; [27],40
same,"Plant response rating, Blackgrass",blackgrass [13]; [28],0
same,"Plant response rating, Corn",corn [14]; [27],10
same,"Plant response rating, Corn",corn [14]; [28],10
same,"Plant response rating, Foxtail, Green",green foxtail [15]; [27],20
same,"Plant response rating, Foxtail, Green",green foxtail [15]; [28],0
same,"Plant response rating, Kochia",kochia [16]; [27],80
same,"Plant response rating, Kochia",kochia [16]; [28],20
same,"Plant response rating, Oat, Wild","oat, wild [17]; [27]",0
same,"Plant response rating, Oat, Wild","oat, wild [17]; [28]",0
same,"Plant response rating, Pigweed, Palmer","pigweed, palmer [18]; [27]",50
same,"Plant response rating, Pigweed, Palmer","pigweed, palmer [18]; [28]",10
same,"Plant response rating, Ragweed",ragweed [19]; [27],40
same,"Plant response rating, Ragweed",ragweed [19]; [28],0
same,"Plant response rating, Ryegrass, Italian","ryegrass, Italian [20]; [27]",30
same,"Plant response rating, Ryegrass, Italian","ryegrass, Italian [20]; [28]",30
same,"Plant response rating, Soybean",soybean [21]; [27],100
same,"Plant response rating, Soybean",soybean [21]; [28],80
same,"Plant response rating, Wheat",wheat [22]; [27],10
same,"Plant response rating, Wheat",wheat [22]; [28],10
same,"Plant response rating, Galium",galium; [27],80
same,"Plant response rating, Galium",galium; [28],60
same,"Plant response rating, Horseweed",horseweed; [27],0
same,"Plant response rating, Horseweed",horseweed; [28],0
same,"Plant response rating, Barnyardgrass (Flood)",barnyardgrass [23],0
same,"Plant response rating, Ducksalad (Flood)",ducksalad,0
same,"Plant response rating, Rice (Flood)",rice,0
same,"Plant response rating, Sedge, Umbrella (Flood)","sedge, umbrella",0
